# How the values were obtained:
# human recombinant CTSC = human recombinant CTSC (Homo sapiens (Human), UniProt P53634); assay: CTSC inhibition assay (in vitro), fluorescent substrate GF-AFC; format: biochemical; details: 30 μmol/L GF-AFC, pH 5.0, 25° C.
# Method in brief: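 Recombinant human CTSC pre-activated with cathepsin L (18° C, 30 min), then preincubated with compound 30 min at 25° C in pH 5.0 MES buffer with 5 mmol/L DTT (0.66 ng/mL CTSC, 0.15% DMSO). Cleavage of 30 μmol/L GF-AFC read after 1 h at 25° C (ex 390/em 505 nm); IC50 by 4-parameter fit.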
# CTSC in U937 cells = CTSC in U937 cells (Homo sapiens (Human), UniProt P53634); assay: Intracellular CTSC inhibition assay (in vitro), LLOMe-induced cell death in U937 cells; format: cell-based; details: 3 hours culture, CellTiter-Glo
# Sequence of CTSC in U937 cells (P53634 25-463): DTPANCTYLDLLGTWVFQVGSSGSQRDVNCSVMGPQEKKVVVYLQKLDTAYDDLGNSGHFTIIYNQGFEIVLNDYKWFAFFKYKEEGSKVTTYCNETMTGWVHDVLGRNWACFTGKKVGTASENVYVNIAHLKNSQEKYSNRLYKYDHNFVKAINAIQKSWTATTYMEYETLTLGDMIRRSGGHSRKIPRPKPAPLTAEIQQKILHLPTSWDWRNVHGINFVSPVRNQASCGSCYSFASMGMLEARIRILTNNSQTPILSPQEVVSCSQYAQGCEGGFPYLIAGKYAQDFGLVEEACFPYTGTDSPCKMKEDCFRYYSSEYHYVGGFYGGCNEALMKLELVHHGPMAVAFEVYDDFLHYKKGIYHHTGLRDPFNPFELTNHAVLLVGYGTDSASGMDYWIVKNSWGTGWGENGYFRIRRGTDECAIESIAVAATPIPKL
# Method in brief: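 U937 cells in RPMI-1640 with 10% FBS were preincubated 30 min with compound ([…], 3-fold dilutions). A 300 μmol/L LLOMe solution was then added, which drives CTSC-dependent cell death, and cells were cultured 3 h. Viability read by CellTiter-Glo luminescence; IC50 from 4-parameter fit.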
# Sequence of human recombinant CTSC (P53634 25-134): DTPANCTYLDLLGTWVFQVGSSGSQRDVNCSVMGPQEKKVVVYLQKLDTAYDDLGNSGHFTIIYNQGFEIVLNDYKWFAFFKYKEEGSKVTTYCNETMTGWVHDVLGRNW
# Sequence of human recombinant CTSC (P53634 231-394): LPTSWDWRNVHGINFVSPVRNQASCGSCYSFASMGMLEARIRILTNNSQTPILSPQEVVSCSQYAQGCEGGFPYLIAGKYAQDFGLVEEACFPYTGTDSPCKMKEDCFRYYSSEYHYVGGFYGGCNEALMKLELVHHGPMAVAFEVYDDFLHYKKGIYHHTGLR
# Sequence of human recombinant CTSC (P53634 395-463): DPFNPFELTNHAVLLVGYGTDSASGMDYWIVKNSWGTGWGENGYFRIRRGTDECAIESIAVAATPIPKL
IC50 (human recombinant CTSC) [nM],SMILES,IC50 (CTSC in U937 cells) [nM]
1.7,O=C([C@@H]1C[C@@H](O)C2(CCC2)CN1)N1CCC(c2nc(C3CCC(F)(F)CC3)no2)(C(F)(F)F)CC1 [Example 13],0.19
39.3,O=C([C@@H]1CC[C@@]2(CCO2)CN1)N1CCC(c2nc(C3CC(F)(F)C3)no2)(C(F)(F)F)CC1 [Example 10],162
18.7,CC1(C)CN(C(=O)c2nc(C3(C(F)(F)F)CCN(C(=O)[C@@H]4C[C@@H](O)C5(CCC5)CN4)CC3)no2)C1 [Example 53],11.3
0.24,CC(C)C1(C(=O)NCC2CCC(F)(F)CC2)CN(C(=O)[C@@H]2CC[C@@]3(CCO3)CN2)C1 [Example 27],133
1.88,CC1(c2nc(C3(C(F)(F)F)CCN(C(=O)[C@@H]4C[C@@H](O)C5(CCC5)CN4)CC3)no2)CC(F)(F)C1 [Example 45],0.17
> 200,CC(C)C1(c2noc(C3CCC(F)(F)CC3)n2)CCN(C(=O)[C@H]2N[C@@H]3CC[C@H]2C3)CC1 [Example 26],474
25.5,O=C([C@@H]1C[C@@H](O)C2(CCC2)CN1)N1CCC(C(=O)N2CCOC3(CC3)C2)(C(F)(F)F)CC1 [Example 32],8.84
3.39,O=C([C@@H]1C[C@@H](O)C2(CCC2)CN1)N1CCC(C(=O)N2CCC(C(F)(F)F)C2)(C(F)(F)F)CC1 (stereo partly shown) [Example 35],6.54
5.72,O=C([C@@H]1C[C@@H](O)C2(CCC2)CN1)N1CCC(c2noc(C3CCOCC3)n2)(C(F)(F)F)CC1 [Example 61],1.75
> 200,CC(C)C1(c2noc(C3CCC(F)(F)CC3)n2)CCN(C(=O)[C@H]2N[C@H]3CC[C@@H]2[C@H](O)C3)CC1 [Example 38],124
2.55,CC(C)C1(c2noc(C3CCC3)n2)CCN(C(=O)[C@@H]2C[C@@H](O)C3(CCC3)CN2)CC1 [Example 58],0.56
2.51,CC(C)C1(c2nc(C3CCC(F)(F)CC3)no2)CN(C(=O)[C@@H]2CC[C@@]3(CCO3)CN2)C1 [Example 21],4.78
3.92,O=C([C@@H]1C[C@@H](O)C2(CCC2)CN1)N1CCC(c2cnn(-c3ccc(F)cc3)c2)CC1 [Example 93],0.77
2.62,CC(NC(=O)C1(C(F)(F)F)CCN(C(=O)[C@@H]2CC[C@@]3(CCO3)CN2)CC1)C1CCC(F)(F)CC1 (stereo partly shown) [Example 33],7.5
3.79,CC(=O)N(C)C1(c2nc(C3CC(F)(F)C3)no2)CCN(C(=O)[C@@H]2C[C@@H](O)C3(CCC3)CN2)CC1 [Example 77],> 333
8.28,"CC1(C)CN[C@H](C(=O)N2CCC(c3noc(C4CC(F)(F)C4)n3)(C(F)(F)F)CC2)C[C@H]1O [Example 51, (4-(5-(3,3-Difluorocyclobutyl)-1,2,4-oxadiazol-3-yl)-4-(trifluoromethyl)piperidin-1-yl)((2S,4R)-4-hydroxy-5,5-dimethylpiperidin-2-yl)methanone]",0.86
0.31,"O=C([C@@H]1C[C@@H](O)C2(CCC2)CN1)N1CCC(c2noc(C3CCC(F)(F)CC3)n2)(C(F)(F)F)CC1 [Example 31, (4-(5-(4,4-Difluorocyclohexyl)-1,2,4-oxadiazol-3-yl)-4-(trifluoromethyl)piperidin-1-yl)((7S,9R)-9-hydroxy-6-azaspiro[3.5]nonan-7-yl)methanone]",0.22
4.4,O=C([C@@H]1C[C@@H](O)C2(CCC2)CN1)N1CCC(C(=O)N2CC[C@H](C(F)(F)F)C2)(C(F)(F)F)CC1 [Example 55],3.79
1.08,CC(C)C1(c2noc(C3CC(F)(F)C3)n2)CCN(C(=O)[C@@H]2C[C@@H](O)C3(CCC3)CN2)CC1 [Example 5],1.01
2.21,CN(C)C1(c2nc(C3CC(F)(F)C3)no2)CCN(C(=O)[C@@H]2C[C@@H](O)C3(CCC3)CN2)CC1 [Example 75],5.01
